From article PMC10500001, “Dual hypoxia-responsive supramolecular complex for cancer target therapy” (Nature Communications, 2023)
Several values for one entry are separate records, joined by “and”; a condition that tells them apart may be missing. Identical values can stand only once.

Columns and labels:
[1] = Biosafety: blood routine and blood chemistry assays
Method: Toxic effects are a barrier to overcome before efficient deliverability can be achieved with BE.
For in vivo anticancer efficacy study, 1 × 10^6 PANC1 cells were injected subcutaneously into the right flanks of the BALB/c nude mice. To investigate the anticancer effects of SBE-β-CD@NMP-BE, the mice with tumor volumes at around 50 mm^3 were randomized into four groups (6 mice per group) and injected intravenously via tails with 200 μL of PBS, NMP-BE (5 mg/kg), SBE-β-CD (15 mg/kg) and NMP-BE@SBE-β-CD (20 mg/kg) every two days for 8 times and the tumor volumes for 14 days were continuously monitored. Tumor were measured by using a Vernier calipers and the volume (V) was calculated to be V = d^2 × D/2, where d is the shortest and the D is longest diameter of the tumor in mm respectively. […] Tumors were measured as mentioned above. To assess potential toxicities, mice were monitored for weight loss. Tumors were collected for H&E analysis and immunofluorescence staining. Major organs including heart, liver, spleen, lung, and kidney, were collected and stained with H&E for histopathologic analysis. To evaluate biosafety of SAC5A, blood samples were collected for blood chemistry assay and blood routine assay.

[2] = Competitive fluorescence titration of RhB@SAC5A with NMP-BE; settings: binding of SAC5A to NMP-BE, 1:1 competitive binding, PBS 10 mM pH 7.4, 25 °C
Method: Data are presented as mean ± SD (n = 3 biologically independent samples). Source data are provided as a Source Data file.
The complexation of SAC5A with NMP-BE was measured by competitive fluorescence titrations. A mixed solution containing known amounts of reporter dye (RhB), host (SAC5A) and competitive guest (NMP-BE) was injected into 2.50 mL RhB and SAC5A solution in a quartz cuvette. Care was taken to keep the concentrations of dye and SAC5A constant in the course of titrations. The fluorescence intensity was measured (λex = 554 nm for RhB) before the first addition and after every addition. The association constant was obtained by fitting fluorescence intensity (λem = 575 nm for RhB) according to a 1:1 competitive binding model. The fitting of data from direct titrations and competitive titrations was performed in a nonlinear manner, and the fitting modules were downloaded from the website of Prof. Nau’s group (http://www.jacobs-university.de/ses/wnau) under the column of “Fitting Functions”.

[3] = system: PANC1 tumor-bearing BALB/c nude mice; assay: In vivo anticancer effects of NMP and SAC5A; design: species or system mouse; settings: for Tumor volume: Supplementary Fig.22a
Method: Supplementary Figure 22. […] (a) Average […]
presented as mean ± SD (n = 6 mice per group). P values are calculated by two-way […]
Data are presented as mean ± SD ( n = 6 biologically independent samples ). P values are calculated by one-way ANOVA with Turkey’s multiple comparisons test: ns: no […]
Note: (b) During the experiment, the tumor images were taken of PBS vs NMP, PBS vs SAC5A groups respectively. As the PBS group consisted of the same tumors, the tumor

[4] = system: PANC1 tumor-bearing BALB/c nude mice; assay: In vivo anticancer efficacy study of NMP-BE@SAC5A; design: species or system mouse; settings: for Tumor volume: SAC5A 15, NMP-BE 5, NMP-BE@SAC5A 20 mg/kg iv
Text: After the tumor grows to a suitable size, the tumor was divided into small pieces and then subcutaneously inoculated into the right flank of other mice. After 10 d of inoculation, when the tumor volumes of mice were around 50 mm^3, PANC1-bearing BALB/c nude mice were separated randomly with a total of six mice in each group. […] On day 18 after injection, the mice were euthanized, and their tumors were collected. […] In addition, we also investigated the anticancer effects of NMP-BE@SBE-β-CD.
(§1) Tumors were measured as mentioned above.

PANC1 tumor tissues = assay: Histology of dissected tumors (H&E, TUNEL, Ki67); settings: mouse, in vivo
Method: The hematoxylin-eosin (H&E) staining and terminal deoxynucleotidyl transferase dUTP nick end labeling (TUNEL) tests were next carried out to evaluate the cell pathology changes and apoptosis in the tumors of every groups. […] Meanwhile, we verified the effects of different treatments on cancer cell proliferation by immunofluorescence Ki67 staining.
as §1

PANC1 cells = assay: CCK8 cytotoxicity of SAC5A and SBE-β-CD, 24 h; format: cell-based, human; settings: for cell viability: 24 h, in % (unit assumed)
Method: PANC1 cells (5 × 10^3 cells/well) were seeded into the 96-well plate and incubated overnight. They were treated with SAC5A or SBE-β-CD of different concentrations and incubated for 24 h under normoxic or hypoxic conditions, respectively. […] After a 6 h incubation under normoxic conditions, the culture medium was exchanged with fresh medium. Subsequently, the cells were incubated at 37 °C for 18 h under either normoxic or hypoxic conditions, respectively. And then, the culture medium was replaced with fresh medium and 10 μL cell counting kit-8 solution (C6005, US Everbright, Jiangsu, China). Following a 4 h incubation, the optical density was assessed at 450 nm employing a microplate reader.
Supplementary Figure 19. The cytotoxicity of SAC5A and SBE-β-CD. (a) Cell viability
Data are presented as mean ± SD (n = 6 biologically independent samples).

## O=S(=O)(O)c1ccc(/N=N/c2cc3c(O)c(c2)Cc2cc(/N=N/c4ccc(S(=O)(=O)O)cc4)cc(c2O)Cc2cc(/N=N/c4ccc(S(=O)(=O)O)cc4)cc(c2O)Cc2cc(/N=N/c4ccc(S(=O)(=O)O)cc4)cc(c2O)Cc2cc(/N=N/c4ccc(S(=O)(=O)O)cc4)cc(c2O)C3)cc1 [SAC5A, sulfonated azocalix[5]arene]
[1]; blood chemistry, individual mice 1-5, Fig.6h
  ALP: 192.3 U/L and 155.8 U/L and 154.8 U/L and 192.1 U/L and 150.9 U/L
[1]; blood chemistry, individual mice 1-5, Fig.6i
  ALT: 40 U/L and 44.1 U/L and 53.2 U/L and 59.2 U/L and 46 U/L
[1]; blood chemistry, individual mice 1-5, Fig.6j
  AST: 141.2 U/L and 161.4 U/L and 172.2 U/L and 182.6 U/L and 148.2 U/L
[1]; blood chemistry, individual mice 1-5, Fig.6k
  CRE: 141.2 µmol/L and 161.4 µmol/L and 172.2 µmol/L and 182.6 µmol/L and 148.2 µmol/L
[1]; blood chemistry, individual mice 1-5, Fig.6l
  BUN: 8.3 mmol/L and 8.7 mmol/L and 6.3 mmol/L
[1]; blood routine, individual mice 1-5, Fig.6a
  RBC: 10.0 1012/L and 9.2 1012/L and 9.1 1012/L and 11.1 1012/L and 11.2 1012/L
[1]; blood routine, individual mice 1-5, Fig.6b
  MCHC: 305 g/L and 300 g/L and 301 g/L and 299 g/L and 308 g/L
[1]; blood routine, individual mice 1-5, Fig.6c
  HCT: 51.8% and 49.2% and 51% and 53.8% and 50.9%
[1]; blood routine, individual mice 1-5, Fig.6d
  MCV: 48.4 fL and 48.1 fL and 48.2 fL and 48.5 fL and 49.1 fL
[1]; blood routine, individual mice 1-5, Fig.6e
  PLT: 11.4 1011/L and 11.8 1011/L and 10.7 1011/L and 11.5 1011/L and 12.0 1011/L
[1]; blood routine, individual mice 1-5, Fig.6f
  RDW: 14.3% and 14.9% and 13.6% and 13.3%
[1]; blood routine, individual mice 1-5, Fig.6g
  MPV: 5.3 fL and 5.4 fL and 6 fL and 5.5 fL
[1]; one-way ANOVA
  RBC, MCHC, HCT, MCV, PLT, RDW, MPV, ALP, ALT, AST, CRE, BUN levels versus PBS group: no significance
[1]; treated mice
  RBC, MCHC, HCT, MCV, PLT, RDW, MPV values: small alteration
[2]
  Ka: (5.1 ± 0.5) × 10^6 M^−1
[3]; day 0, individual mice (n=6)
  Tumor volume: 39.34 mm3 and 42.10 mm3 and 36.90 mm3 and 42.16 mm3
[3]; day 2, individual mice (n=6)
  Tumor volume: 46.70 mm3 and 75.90 mm3 and 48.08 mm3 and 55.90 mm3
[3]; day 4, individual mice (n=6)
  Tumor volume: 55.83 mm3 and 118.84 mm3 and 75.42 mm3 and 64.80 mm3
[3]; day 6, individual mice (n=6)
  Tumor volume: 73.60 mm3 and 175.66 mm3 and 110.64 mm3 and 99.97 mm3
[3]; day 8, individual mice (n=6)
  Tumor volume: 97.53 mm3 and 181.96 mm3 and 126.04 mm3 and 134.13 mm3
[3]; day 10, individual mice (n=6)
  Tumor volume: 142.07 mm3 and 265.92 mm3 and 173.37 mm3 and 226.57 mm3
[3]; day 12, individual mice (n=6)
  Tumor volume: 165.62 mm3 and 298.12 mm3 and 264.30 mm3 and 338.22 mm3
[3]; day 14, individual mice (n=6)
  Tumor volume: 268.77 mm3 and 498.25 mm3 and 328.38 mm3 and 404.85 mm3
[3]; day 16, individual mice (n=6)
  Tumor volume: 387.44 mm3 and 789.47 mm3 and 472.22 mm3 and 693.97 mm3
[3]; day 18, individual mice (n=6)
  Tumor volume: 532.86 mm3 and 970.26 mm3 and 525.48 mm3 and 748.96 mm3
[3]; individual mice (n=6), Supplementary Fig.22c
  Tumor weight: 306.9 mg and 287.7 mg and 279.3 mg and 561.1 mg and 306.5 mg and 287.3 mg
[4]; Day 0, single mouse
  Mice weight: 18.5 g and 17.7 g and 16.0 g and 18.0 g and 17.5 g and 16.6 g
  Tumor volume: 39.34 mm3 and 42.10 mm3 and 36.90 mm3 and 42.16 mm3 and 42.33 mm3 and 56.35 mm3
[4]; Day 2, single mouse
  Mice weight: 14.6 g and 16.5 g and 17.5 g and 17.9 g and 18.5 g and 17.6 g
  Tumor volume: 46.70 mm3 and 75.90 mm3 and 48.08 mm3 and 55.90 mm3 and 59.70 mm3 and 76.08 mm3
[4]; Day 4, single mouse
  Tumor volume: 55.83 mm3 and 118.84 mm3 and 75.42 mm3 and 64.80 mm3 and 72.81 mm3 and 104.25 mm3
[4]; Day 6, single mouse
  Mice weight: 16.3 g and 16.8 g and 17.8 g and 19.4 g and 19.1 g
  Tumor volume: 73.60 mm3 and 175.66 mm3 and 110.64 mm3 and 99.97 mm3 and 116.56 mm3 and 152.05 mm3
[4]; Day 8, single mouse
  Mice weight: 16.1 g and 19.1 g and 16.0 g and 17.6 g and 17.1 g and 18.7 g
  Tumor volume: 97.53 mm3 and 181.96 mm3 and 126.04 mm3 and 134.13 mm3 and 98.89 mm3 and 192.89 mm3
[4]; Day 10, single mouse
  Mice weight: 15.8 g and 18.5 g and 15.6 g and 17.5 g and 16.4 g and 18.7 g
  Tumor volume: 142.07 mm3 and 265.92 mm3 and 173.37 mm3 and 226.57 mm3 and 159.78 mm3 and 251.75 mm3
[4]; Day 12, single mouse
  Mice weight: 16.5 g and 19.0 g and 16.2 g and 18.3 g and 16.3 g and 18.5 g
  Tumor volume: 165.62 mm3 and 298.12 mm3 and 264.30 mm3 and 338.22 mm3 and 196.07 mm3 and 282.53 mm3
[4]; Day 14, single mouse
  Mice weight: 16.0 g and 18.0 g and 16.1 g and 18.7 g and 16.4 g and 16.2 g
  Tumor volume: 268.77 mm3 and 498.25 mm3 and 328.38 mm3 and 404.85 mm3 and 346.37 mm3 and 404.41 mm3
[4]; Day 16, single mouse
  Mice weight: 16.6 g and 18.4 g and 19.3 g and 16.3 g and 19.7 g
  Tumor volume: 387.44 mm3 and 789.47 mm3 and 472.22 mm3 and 693.97 mm3 and 504.38 mm3 and 616.16 mm3
[4]; Day 18, single mouse
  Mice weight: 16.3 g and 17.8 g and 17.5 g and 16.2 g and 19.7 g
  Tumor volume: 532.86 mm3 and 970.26 mm3 and 525.48 mm3 and 748.96 mm3 and 671.75 mm3 and 704.93 mm3
[4]; PANC1-bearing BALB/c nude mice, iv every other day, 18 days
  anticancer effect: no anticancer effect
[4]; day mice were sacrificed (day 18), single mouse
  Tumor weight: 287.7 mg and 279.3 mg and 561.1 mg and 306.5 mg and 287.3 mg and 306.9 mg
PANC1 tumor tissues
  TUNEL apoptosis in tumors: negligible apoptosis
PANC1 cells; PANC1, Hypoxia, 10 μM
  cell viability: 101.91 and 106.97 and 106.87 and 103.95 and 95.76 and 94.38
PANC1 cells; PANC1, Hypoxia, 20 μM
  cell viability: 98.99 and 105.90 and 107.51 and 100.07 and 96.78 and 98.26
PANC1 cells; PANC1, Hypoxia, 40 μM
  cell viability: 96.62 and 103.74 and 107.19 and 94.57 and 95.43 and 98.62
PANC1 cells; PANC1, Hypoxia, 100 μM
  cell viability: 89.44 and 102.24 and 97.97 and 93.46 and 97.47 and 88.44
PANC1 cells; PANC1, Hypoxia, 200 μM
  cell viability: 96.47 and 99.73 and 95.34 and 92.70 and 90.07 and 95.59
PANC1 cells; PANC1, Hypoxia, 400 μM
  cell viability: 98.35 and 96.22 and 97.85 and 103.12 and 92.08 and 92.95
PANC1 cells; PANC1, Normoxia, 10 μM
  cell viability: 94.32 and 96.61 and 94.68 and 98.32 and 94.21 and 96.48
PANC1 cells; PANC1, Normoxia, 20 μM
  cell viability: 92.78 and 88.19 and 94.36 and 97.85 and 97.21 and 107.50
PANC1 cells; PANC1, Normoxia, 40 μM
  cell viability: 88.98 and 89.46 and 94.68 and 94.21 and 93.73 and 87.87
PANC1 cells; PANC1, Normoxia, 100 μM
  cell viability: 86.69 and 92.80 and 86.44 and 99.65 and 91.72 and 99.02
PANC1 cells; PANC1, Normoxia, 200 μM
  cell viability: 96.38 and 94.98 and 93.23 and 105.44 and 89.58 and 94.49
PANC1 cells; PANC1, Normoxia, 400 μM
  cell viability: 90.21 and 94.16 and 91.97 and 97.63 and 95.37 and 92.10
PANC1 cells; PANC1 cells, 10 μM to 0.40 mM, normoxic and hypoxic
  cytotoxicities: negligible
